Test results published in US6277825A (priority 1999, dated 2001).
Several values for one entry are separate records, joined by “and”; a condition that tells them apart may be missing. Identical values can stand only once. Like-named read-outs stand apart in the source and are kept apart here. Where no end group is shown, it is not given here. [ ]: non-standard residue; d: D form. Gla = N[C@@H](CC(C(=O)O)C(=O)O)C(=O)O

Tests used:
[1] = tested on: Frings audiogenic seizure susceptible mice; type: in vivo; conditions: for ED50: mouse, in vivo
[2] = tested on: Frings audiogenic seizure-susceptible mice; conditions: mouse, in vivo
[3] = tested on: CF No. 1 mice; conditions: mouse, in vivo
[4] = tested on: young (<2 weeks old) mice; type: in vivo
[5] = tested on: young (<2 weeks old) mice; type: in vivo; remark: listed apart in the source
[6] = tested on: young (<2 weeks old) mice; type: in vivo; remark: listed apart in the source
[7] = 37° C.; 50 μg/ml

NC(=O)OCC(COC(N)=O)c1ccccc1 [Felbamate, reference compound]
animals protected ([1]; 30 min): 5/8 and 4/8 | TD50 (rotorod performance, minimal motor impairment) [2]: > 630 nmol

Nc1nnc(-c2cccc(Cl)c2Cl)c(N)n1 [Lamotrigine, reference compound]
ED50 [1]: 146 nmol | PI (TD50/ED50) [2]: > 2.0 | TD50 (rotorod performance, minimal motor impairment) [2]: > 290 nmol

CC1(C)O[C@@H]2[C@@H](CO[C@@]3(COS(N)(=O)=O)OC(C)(C)O[C@@H]23)O1 [Topiramate, reference compound]
ED50 [1]: > 150 nmol | TD50 (rotorod performance, minimal motor impairment) [2]: no marked

CCCC(CCC)C(=O)O [Valproic Acid, reference compound]
ED50 [1]: 566 nmol | PI (TD50/ED50) [2]: 1.1-2.2

CCC1(c2ccccc2)C(=O)NC(=O)NC1=O [Phenobarbitol, reference compound]
PI (TD50/ED50) [2]: 0.5 | TD50 (rotorod performance, minimal motor impairment) [2]: 68.8 nmol

CC(C(O)c1ccc(O)cc1)N1CCC(Cc2ccccc2)CC1 (centres unmarked) [Ifenprodil, reference compound]
ED50 [1]: ~ 25 nmols | P.I. (TD50/ED50) [2]: < 1 | TD50 [2]: < 25

Conantokin T (GE[Gla][Gla]YQKML[Gla]NLR[Gla]AEVKKNA-NH2; N-terminus assumed; SMILES CSCC[C@H](NC(=O)[C@H](CCCCN)NC(=O)[C@H](CCC(N)=O)NC(=O)[C@H](Cc1ccc(O)cc1)NC(=O)[C@H](CC(C(=O)O)C(=O)O)NC(=O)[C@H](CC(C(=O)O)C(=O)O)NC(=O)[C@H](CCC(=O)O)NC(=O)CN)C(=O)N[C@@H](CC(C)C)C(=O)N[C@@H](CC(C(=O)O)C(=O)O)C(=O)N[C@@H](CC(N)=O)C(=O)N[C@@H](CC(C)C)C(=O)N[C@@H](CCCNC(=N)N)C(=O)N[C@@H](CC(C(=O)O)C(=O)O)C(=O)N[C@@H](C)C(=O)N[C@@H](CCC(=O)O)C(=O)N[C@H](C(=O)N[C@@H](CCCCN)C(=O)N[C@@H](CCCCN)C(=O)N[C@@H](CC(N)=O)C(=O)N[C@@H](C)C(N)=O)C(C)C) [Con T]
#Protected/#Tested ([1]; 10 min): 0/9 | % Protected ([1]; 10 min): 0% | #Protected/#Tested ([1]; 20 min): 1/2 | % Protected ([1]; 20 min): 50% | #Protected/#Tested ([1]; 30 min): 2/6 | % Protected ([1]; 30 min): 33% | #Protected/#Tested ([1]; 60 min): 4/6 | % Protected ([1]; 60 min): 67% | #Protected/#Tested ([1]; 240 min): 1/6 | % Protected ([1]; 240 min): 17% | anticonvulsant activity [3]: anticonvulsant activity | Catalepsy Test, positive mice/tested ([4]; 30 min): 3/4 | Catalepsy Test, positive mice/tested ([4]; 60 min): 1/4 | Sleepy Test, positive mice/tested ([5]; 30 min): 4/4 | Sleepy Test, positive mice/tested ([5]; 60 min): 4/4 | Righting Reflex, mice that lost reflex/tested ([6]; 30 min): 2/4 | Righting Reflex, mice that lost reflex/tested ([6]; 60 min): 2/4 | P.I. (TD50/ED50) [2]: 13 | TD50 [2]: 0.228 nmols | behavioral toxicity (rotorod test) [2]: No animals exhibited behavioral toxicity | stability in biological media [7]: stable in all biological media for up to 4 hours
